16 compounds from PubChem BioAssay AID276 (DTP/NCI, 2004) can be followed below.

Molecules are shown by their SMILES. “And” between values parts separate entries of the source, which are not always exact repeats. Equal entries are not always repeated. Toxic doses and inconclusive results are not listed.

This experiment has as its system B6C3F1 mice, Lewis lung carcinoma iv, survival T/C. In words: NCI In Vivo Anticancer Drug Screen. Data for tumor model Lewis Lung Carcinoma (intravenous) in B6C3F1 mice. As to conditions: endpoint: median survival time, schedule: Q01DX009 (ip), higher = longer survival. In outline:
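T/C ratio derived from survival of compound-treated versus vehicle-treated mice bearing transplantable tumors.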

The mark [1] stands for this setting: dose: 6.25 mg/kg/injection, vehicle: saline with Tween-80.
[2] abbreviates: dose: 12.5 mg/kg/injection, vehicle: saline with Tween-80.
[3] abbreviates: dose: 25.0 mg/kg/injection, vehicle: saline with Tween-80.
The mark [4] stands for this setting: dose: 50.0 mg/kg/injection, vehicle: saline with Tween-80.
The mark [5] stands for this setting: dose: 100.0 mg/kg/injection, vehicle: saline with Tween-80.
The mark [6] stands for this setting: dose: 200.0 mg/kg/injection, vehicle: saline with Tween-80.
Setting [7] is: dose: 2.5 mg/kg/injection, vehicle: saline.
[8] abbreviates: dose: 10.0 mg/kg/injection, vehicle: saline.

For the compound `N#CC(=C1SCS1)[N+](=O)[O-]`, the T/C by setting is: (dose: 0.37 mg/kg/injection, vehicle: saline with Tween-80) 98 % of control; (dose: 0.75 mg/kg/injection, vehicle: saline with Tween-80) 107 % of control; (dose: 1.5 mg/kg/injection, vehicle: saline with Tween-80) 106 % of control; (dose: 3.0 mg/kg/injection, vehicle: saline with Tween-80) 109 % of control; (dose: 6.0 mg/kg/injection, vehicle: saline with Tween-80) 106 % of control; (dose: 12.0 mg/kg/injection, vehicle: saline with Tween-80) 92 % of control.

For the compound `C[CH2][Ge]([CH2]C)[CH2]C.C[CH2][Ge]([CH2]C)[CH2]C.C[CH2][Ge]([CH2]C)[O][Ge]([CH2]C)[CH2]C`, the T/C is, setting by setting: under setting [1], 105 % of control; under setting [2], 106 % of control; under setting [3], 106 % of control; under setting [4], 101 % of control; under setting [5], 113 % of control.

As for `CCCCCNc1ncnc2c(C)[nH]nc12`, the T/C is 103 % of control (dose: 25.0 mg/kg/injection, vehicle: Klucel (hydroxypropylcellulose) (HPC)); 94 % of control (dose: 50.0 mg/kg/injection, vehicle: Klucel (hydroxypropylcellulose) (HPC)); 108 % of control (dose: 100.0 mg/kg/injection, vehicle: Klucel (hydroxypropylcellulose) (HPC)).

On to `CCCCc1ccc2nc(NC(=O)OC)[nH]c2c1`, for which the T/C runs as follows: under setting [1], 111 % of control; under setting [2], 97 % of control; under setting [3], 95 % of control; under setting [4], 95 % of control; under setting [5], 111 % of control.

`Cn1cnc([N+](=O)[O-])c1Sc1ncn[nH]1`: the T/C (dose: 12.5 mg/kg/injection, vehicle: saline) was 104 % of control; the T/C (dose: 25.0 mg/kg/injection, vehicle: saline) was 111 % of control; the T/C (dose: 50.0 mg/kg/injection, vehicle: saline) was 124 % of control; the T/C (dose: 100.0 mg/kg/injection, vehicle: saline) was 116 % of control.

For `COc1cc2cc[n+](C)c(Cc3ccccc3)c2cc1OC`, the T/C is 112 % of control (dose: 3.13 mg/kg/injection, vehicle: saline with Tween-80); 120 % of control under setting [1]; 96 % of control under setting [2]; 99 % of control under setting [3]; 91 % of control under setting [4].

With `CC1(C)CC23C4COC(=O)C2CCC1C3CC4=O` (stereo unspecified), the T/C is 103 % of control (dose: 3.0 mg/kg/injection, vehicle: DMSO); 97 % of control and 99 % of control (dose: 6.0 mg/kg/injection, vehicle: DMSO); 100 % of control and 102 % of control (dose: 12.0 mg/kg/injection, vehicle: DMSO); 95 % of control and 124 % of control (dose: 24.0 mg/kg/injection, vehicle: DMSO); 103 % of control and 106 % of control (dose: 48.0 mg/kg/injection, vehicle: DMSO); 102 % of control (dose: 96.0 mg/kg/injection, vehicle: DMSO). Also, the T/C (dose: 192.0 mg/kg/injection, vehicle: DMSO) was 98 % of control.

In the case of `CC(=O)C1=C(O)C2(O)C(=O)c3c(c(C)c4ccc(C)c(O)c4c3O)CC2C(N)C1=O` (stereo unspecified), the T/C is 95 % of control and 105 % of control (dose: 3.75 mg/kg/injection, vehicle: saline + alcohol); 102 % of control (dose: 7.3 mg/kg/injection, vehicle: saline + alcohol); 95 % of control (dose: 7.5 mg/kg/injection, vehicle: saline + alcohol); 102 % of control and 107 % of control (dose: 15.0 mg/kg/injection, vehicle: saline + alcohol); 98 % of control and 107 % of control (dose: 30.0 mg/kg/injection, vehicle: saline + alcohol); 102 % of control and 110 % of control (dose: 60.0 mg/kg/injection, vehicle: saline + alcohol). Also, the T/C (dose: 120.0 mg/kg/injection, vehicle: saline + alcohol) was 112 % of control.

Regarding `CCN(CC)c1ccc2[nH]c3c(C(N)=O)cc(=O)c(=O)c=3oc2c1`, the T/C is 90 % of control under setting [2], 107 % of control under setting [3], 98 % of control under setting [4] and 93 % of control under setting [5].

For the compound `N#CC(OC1OC(COC2OC(CO)C(O)C(O)C2O)C(O)C(O)C1O)c1ccccc1` (stereo unspecified), the T/C was 92 % of control (dose: 25.0 mg/kg/injection, vehicle: water); 97 % of control (dose: 50.0 mg/kg/injection, vehicle: water); 98 % of control (dose: 100.0 mg/kg/injection, vehicle: water); 98 % of control (dose: 200.0 mg/kg/injection, vehicle: water); 98 % of control (dose: 400.0 mg/kg/injection, vehicle: water); 98 % of control (dose: 800.0 mg/kg/injection, vehicle: water).

`CCCCNC(C)C1(O)Cc2c(O)c3c(c(O)c2C(OC2CC(N)C(O)C(C)O2)C1)C(=O)c1c(OC)cccc1C3=O` (stereo unspecified): the T/C runs as follows: (dose: 10.0 mg/kg/injection, vehicle: water) 108 % of control; (dose: 20.0 mg/kg/injection, vehicle: water) 101 % of control; (dose: 40.0 mg/kg/injection, vehicle: water) 107 % of control; (dose: 80.0 mg/kg/injection, vehicle: water) 113 % of control.

Turning to `BrC1CC(Br)c2c1c1c(c3c2C(Br)CC3Br)C(Br)CC1Br` (stereo unspecified), the T/C under setting [2] is 99 % of control; the T/C under setting [3] was 103 % of control; the T/C under setting [4] was 92 % of control; the T/C under setting [6] is 121 % of control; the T/C (dose: 400.0 mg/kg/injection, vehicle: saline with Tween-80) was 112 % of control.

Turning to `C=C(C)[C@H]1CN[C@H](C(=O)O)[C@H]1CC(=O)O`, the T/C was 113 % of control (dose: 0.31 mg/kg/injection, vehicle: saline); 103 % of control (dose: 0.62 mg/kg/injection, vehicle: saline); 112 % of control (dose: 1.25 mg/kg/injection, vehicle: saline); 100 % of control under setting [7]; 112 % of control (dose: 5.0 mg/kg/injection, vehicle: saline); 107 % of control under setting [8].

Take `O=NN(CCF)C(=O)NC1CCC(=O)NC1=O` (stereo unspecified): the T/C was 118 % of control under setting [7]; 166 % of control under setting [8]; 312 % of control (dose: 20.0 mg/kg/injection, vehicle: saline).

Consider `COc1cc(Cl)ccc1C`, for which the T/C under setting [2] is 102 % of control; the T/C under setting [3] was 98 % of control; the T/C under setting [4] is 100 % of control; the T/C under setting [5] is 97 % of control; the T/C under setting [6] is 97 % of control.

For `CC(C)(C)N1CC1CNC(=O)C(=O)NCC1CN1C(C)(C)C` (stereo unspecified), the T/C was 99 % of control (dose: 0.39 mg/kg/injection, vehicle: saline with Tween-80); 102 % of control and 108 % of control (dose: 0.78 mg/kg/injection, vehicle: saline with Tween-80); 105 % of control and 106 % of control (dose: 1.56 mg/kg/injection, vehicle: saline with Tween-80); 101 % of control and 122 % of control (dose: 3.12 mg/kg/injection, vehicle: saline with Tween-80); 104 % of control and 111 % of control under setting [1]; 108 % of control and 123 % of control under setting [2].
